Test results from patent publication US20240382600A1, “BIFUNCTIONAL DEGRADERS COMPRISING A TEAD BINDER” (Novartis AG, priority 2021, published 2024).

What was measured:
[1] = system: NCI-H2052 Tet-On shYAP_2371 pLenti6 MCAT_Luc cells; test: Proliferation assay (resazurin/AlamarBlue), NCI-H2052; assay type: cell-based; conditions: Homo sapiens; NCI-H2052, 72 hours
[2] = system: MKN-45/Ubc-luc cells (unspecific inhibition of luciferase expression or activity); test: Reporter gene assay specificity control (Ubc-Luc), MKN-45; assay type: cell-based; conditions: Homo sapiens; MKN-45/Ubc-luc specificity control, 24 hrs
Summary of the method: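 MKN-45 cells stably carrying a ubiquitin C promoter–firefly luciferase construct, treated the day after seeding with eleven 2-fold compound dilutions (0.1% DMSO final) for 24 hrs at 37° C. Luminescence read 5 min after Steady Glo addition; cell-free background subtracted, as a control for nonspecific luciferase inhibition.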

[3] = biological target: TEAD1-GFP in HEK293A cells (Homo sapiens (Human), UniProt P28347); test: TEAD1 protein abundance flow cytometry assay in HEK293A; assay type: cell-based; conditions: HEK293A TEAD1-GFP-CHYSEL-mCherry sensor cells, 24 h, GFP signal by flow cytometry
Sequence of TEAD1-GFP in HEK293A cells (P28347 whole entry): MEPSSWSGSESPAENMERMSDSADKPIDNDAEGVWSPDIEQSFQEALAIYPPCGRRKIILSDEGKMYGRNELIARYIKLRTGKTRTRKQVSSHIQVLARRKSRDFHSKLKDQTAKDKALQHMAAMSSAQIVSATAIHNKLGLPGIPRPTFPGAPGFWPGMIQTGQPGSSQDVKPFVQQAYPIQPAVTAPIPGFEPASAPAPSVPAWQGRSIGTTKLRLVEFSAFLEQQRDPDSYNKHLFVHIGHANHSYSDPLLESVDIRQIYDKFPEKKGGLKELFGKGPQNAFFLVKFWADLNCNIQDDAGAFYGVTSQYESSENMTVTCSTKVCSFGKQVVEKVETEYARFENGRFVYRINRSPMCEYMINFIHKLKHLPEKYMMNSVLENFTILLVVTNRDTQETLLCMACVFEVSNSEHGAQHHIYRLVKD
Summary of the method: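 HEK293A stably expressing bicistronic TEAD1-GFP-CHYSEL-mCherry treated 24 h at 37° C with 10-point 3-fold series from 10 μM (0.1% DMSO), duplicate. Median GFP of 2,500 single cells by flow cytometry, normalized to parental HEK293A (0%) and DMSO (100%); DC50 from concentration-response curves.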

[4] = biological target: Avi-humanTEAD4^217-434 / Cy5 labeled humanYAP^60-100 (Homo sapiens (Human), UniProt Q15561); test: In-vitro biochemical TR-FRET assay (TEAD4/YAP); assay type: binding; conditions: 1 h at room temperature
Sequence of Avi-humanTEAD4^217-434 / Cy5 labeled humanYAP^60-100 (Q15561 217-434): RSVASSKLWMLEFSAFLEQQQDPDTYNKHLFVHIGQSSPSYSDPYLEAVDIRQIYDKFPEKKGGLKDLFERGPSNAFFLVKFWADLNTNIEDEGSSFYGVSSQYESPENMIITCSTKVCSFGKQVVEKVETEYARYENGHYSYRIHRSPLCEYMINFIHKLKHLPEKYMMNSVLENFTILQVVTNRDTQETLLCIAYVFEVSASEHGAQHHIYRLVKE

[5] = system: YAP-dependent transcription in SF268-MCAT_Luc_dox-i-shYAPLevy (Clone 13) cells; test: YAP reporter gene activity assay (MCAT-Luc), SF268; assay type: cell-based; conditions: Homo sapiens, SF-268; SF268 MCAT_Luc, 24 hrs
[6] = system: YAP-dependent transcription in NCI-H2052 Tet-On shYAP_2371 pLenti6 MCAT_Luc cells; test: YAP reporter gene activity assay (MCAT-Luc), NCI-H2052; assay type: cell-based; conditions: Homo sapiens, 24 hrs
[7] = system: SF268-MCAT_Luc_dox-i-shYAPLevy (Clone 13) cells; test: Proliferation assay (resazurin/AlamarBlue), SF268; assay type: cell-based; conditions: Homo sapiens, SF-268; SF268, 72 hours
[8] = system: MKN-45/Ubc-luc cells; test: Proliferation assay (resazurin/AlamarBlue), MKN-45; assay type: cell-based; conditions: Homo sapiens; MKN-45, 72 hours
Summary of the method: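 MKN-45 cells carrying constitutive Ubc-driven luciferase reporter, treated the day after seeding with eleven 2-fold dilutions (0.1% DMSO) for 72 h at 37 °C. Viability by resazurin, referenced to day-0 plate; GI50 from % growth (100 none, 0 stasis, −100 kill) and residual viability at top concentration.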

COc1ccc(C(N)=O)c(-c2c(Cl)c(F)cc3c2[C@H](C)[C@@](CN[C@H]2CC[C@H](C(=O)N4CCC(CC5CCN(C(=O)c6ccc(Cl)c(N7CCC(=O)NC7=O)c6)CC5)CC4)CC2)(c2ccccc2)O3)c1F (atropisomer, axis not shown) [Example 24, 2-((2S,3S,4S)-5-chloro-2-((((1r,4S)-4-(4-((1-(4-chloro-3-(2,4-dioxotetrahydropyrimidin-1(2H)-yl)benzoyl)piperidin-4-yl)methyl)piperidine-1-carbonyl)cyclohexyl)amino)methyl)-6-fluoro-3-methyl-2-phenyl-2,3-dihydrobenzofuran-4-yl)-3-fluoro-4-methoxybenzamide]
GI50 [1]: 3.5 nM | IC50 [2]: > 2000 nM | DC50 [3]: < 0.3 nM | IC50 [4]: 3.4 nM | IC50 [5]: 0.2 nM | IC50 [6]: 1 nM | GI50 [7]: 6.2 nM | GI50 [8]: > 2000 nM

COc1ccc(C(N)=O)c(-c2c(Cl)c(F)cc3c2[C@H](C)[C@@](CN[C@H]2CC[C@H](C(=O)N4CCC(CC5CCN(C(=O)COc6ccc(N7CCC(=O)NC7=O)cc6)CC5)CC4)CC2)(c2ccccc2)O3)c1F (atropisomer, axis not shown) [Example 25, 2-((2S,3S,4S)-5-chloro-2-((((1r,4S)-4-(4-((1-(2-(4-(2,4-dioxotetrahydropyrimidin-1(2H)-yl)phenoxy)acetyl)piperidin-4-yl)methyl)piperidine-1-carbonyl)cyclohexyl)amino)methyl)-6-fluoro-3-methyl-2-phenyl-2,3-dihydrobenzofuran-4-yl)-3-fluoro-4-methoxybenzamide]
GI50 [1]: 8.5 nM | IC50 [2]: > 2000 nM | DC50 [3]: 0.5 nM | IC50 [4]: 2.4 nM | IC50 [5]: 0.54 nM | IC50 [6]: 3.2 nM | GI50 [7]: 22 nM | GI50 [8]: > 2000 nM

COc1ccc(C(N)=O)c(-c2c(Cl)c(F)cc3c2[C@H](C)[C@@](CN[C@H]2CC[C@H](C(=O)N4CCC(CC5CCN(C(=O)COc6ccc(N7CCC(=O)NC7=O)c(C)c6)CC5)CC4)CC2)(c2ccccc2)O3)c1F (atropisomer, axis not shown) [Example 26, 2-((2S,3S,4S)-5-chloro-2-((((1r,4S)-4-(4-((1-(2-(4-(2,4-dioxotetrahydropyrimidin-1(2H)-yl)-3-methylphenoxy)acetyl)piperidin-4-yl)methyl)piperidine-1-carbonyl)cyclohexyl)amino)methyl)-6-fluoro-3-methyl-2-phenyl-2,3-dihydrobenzofuran-4-yl)-3-fluoro-4-methoxybenzamide]
GI50 [1]: 2.5 nM | IC50 [2]: > 2000 nM | DC50 [3]: 0.3 nM | IC50 [4]: 4 nM | IC50 [5]: 0.26 nM | IC50 [6]: 1.3 nM | GI50 [7]: 12 nM | GI50 [8]: > 2000 nM

COc1ccc(C(N)=O)c(-c2c(Cl)c(F)cc3c2[C@H](C)[C@@](CN[C@H]2CC[C@H](C(=O)N4CCC(OC5CCN(C(=O)COc6cc(-c7scnc7C)ccc6CNC(=O)[C@@H]6C[C@@H](O)CN6C(=O)[C@@H](NC(=O)C6(F)CC6)C(C)(C)C)CC5)CC4)CC2)(c2ccccc2)O3)c1F (atropisomer, axis not shown) [Example 38, (2S,4R)-N-(2-(2-(4-((1-((1S,4r)-4-((((2S,3S,4S)-4-(6-carbamoyl-2-fluoro-3-methoxyphenyl)-5-chloro-6-fluoro-3-methyl-2-phenyl-2,3-dihydrobenzofuran-2-yl)methyl)amino)cyclohexane-1-carbonyl)piperidin-4-yl)oxy)piperidin-1-yl)-2-oxoethoxy)-4-(4-methylthiazol-5-yl)benzyl)-1-((S)-2-(1-fluorocyclopropane-1-carboxamido)-3,3-dimethylbutanoyl)-4-hydroxypyrrolidine-2-carboxamide]
GI50 [1]: 22 nM | IC50 [2]: > 2000 nM | DC50 [3]: 1 nM | IC50 [4]: 7 nM | IC50 [5]: 0.42 nM | IC50 [6]: 4 nM | GI50 [7]: 24 nM | GI50 [8]: > 2000 nM

COc1ccc(C(N)=O)c(-c2c(Cl)c(F)cc3c2[C@H](C)[C@@](CN[C@H]2CC[C@H](C(=O)N[C@H]4CC[C@H](NC(=O)COc5cc(-c6scnc6C)ccc5CNC(=O)[C@@H]5C[C@@H](O)CN5C(=O)[C@@H](NC(=O)C5(F)CC5)C(C)(C)C)CC4)CC2)(c2ccccc2)O3)c1F (atropisomer, axis not shown) [Example 39, (2S,4R)-N-(2-(2-(((1S,4S)-4-((1S,4R)-4-((((2S,3S,4S)-4-(6-carbamoyl-2-fluoro-3-methoxyphenyl)-5-chloro-6-fluoro-3-methyl-2-phenyl-2,3-dihydrobenzofuran-2-yl)methyl)amino)cyclohexane-1-carboxamido)cyclohexyl)amino)-2-oxoethoxy)-4-(4-methylthiazol-5-yl)benzyl)-1-((S)-2-(1-fluorocyclopropane-1-carboxamido)-3,3-dimethylbutanoyl)-4-hydroxypyrrolidine-2-carboxamide]
GI50 [1]: 170 nM | IC50 [2]: > 2000 nM | DC50 [3]: 9 nM | IC50 [4]: 3 nM | IC50 [5]: 1.8 nM | IC50 [6]: 56 nM | GI50 [7]: 63 nM | GI50 [8]: > 2000 nM

COc1ccc(C(N)=O)c(-c2c(Cl)c(F)cc3c2[C@H](C)[C@@](CN[C@H]2CC[C@H](C(=O)NCCOCCOCCOCCNC(=O)COc4cc(-c5scnc5C)ccc4CNC(=O)[C@@H]4C[C@@H](O)CN4C(=O)[C@@H](NC(=O)C4(F)CC4)C(C)(C)C)CC2)(c2ccccc2)O3)c1F (atropisomer, axis not shown) [Example 40, (2S,4R)-N-(2-((1-((1S,4r)-4-((((2S,3S,4S)-4-(6-carbamoyl-2-fluoro-3-methoxyphenyl)-5-chloro-6-fluoro-3-methyl-2-phenyl-2,3-dihydrobenzofuran-2-yl)methyl)amino)cyclohexyl)-1,15-dioxo-5,8,11-trioxa-2,14-diazahexadecan-16-yl)oxy)-4-(4-methylthiazol-5-yl)benzyl)-1-((S)-2-(1-fluorocyclopropane-1-carboxamido)-3,3-dimethylbutanoyl)-4-hydroxypyrrolidine-2-carboxamide]
GI50 [1]: 410 nM | IC50 [2]: > 20000 nM | DC50 [3]: 20 nM | IC50 [4]: 4.7 nM | IC50 [5]: 47 nM | IC50 [6]: 160 nM | GI50 [7]: 1860 nM | GI50 [8]: > 20000 nM

COc1ccc(C(N)=O)c(-c2c(Cl)c(F)cc3c2[C@H](C)[C@@](CN[C@H]2CC[C@H](C(=O)N4CCC(OC5CCN(C(=O)CCC(=O)N[C@H](C(=O)N6C[C@H](O)C[C@H]6C(=O)N[C@@H](C)c6ccc(-c7scnc7C)cc6)C(C)(C)C)CC5)CC4)CC2)(c2ccccc2)O3)c1F (atropisomer, axis not shown) [Example 41, (2S,4R)-1-((S)-2-(4-(4-((1-((1S,4r)-4-((((2S,3S,4S)-4-(6-carbamoyl-2-fluoro-3-methoxyphenyl)-5-chloro-6-fluoro-3-methyl-2-phenyl-2,3-dihydrobenzofuran-2-yl)methyl)amino)cyclohexane-1-carbonyl)piperidin-4-yl)oxy)piperidin-1-yl)-4-oxobutanamido)-3,3-dimethylbutanoyl)-4-hydroxy-N-((S)-1-(4-(4-methylthiazol-5-yl)phenyl)ethyl)pyrrolidine-2-carboxamide]
GI50 [1]: 270 nM | IC50 [2]: > 2000 nM | DC50 [3]: 27 nM | IC50 [4]: 2.3 nM | IC50 [5]: 11 nM | IC50 [6]: 79 nM | GI50 [7]: 310 nM | GI50 [8]: > 2000 nM

CN[C@@H](C)C(=O)N[C@H](C(=O)N1C[C@@H](NCC(=O)N[C@H]2CC[C@H](NC(=O)[C@H]3CC[C@H](NC[C@]4(c5ccccc5)Oc5cc(F)c(Cl)c(-c6c(C(N)=O)ccc(OC)c6F)c5[C@@H]4C)CC3)CC2)C[C@H]1C(=O)N[C@@H]1CCCc2ccccc21)C1CCCCC1 (atropisomer, axis not shown) [Example 44, (2S,4S)-4-((2-(((1S,4S)-4-((1S,4S)-4-((((2S,3S,4S)-4-(6-carbamoyl-2-fluoro-3-methoxyphenyl)-5-chloro-6-fluoro-3-methyl-2-phenyl-2,3-dihydrobenzofuran-2-yl)methyl)amino)cyclohexane-1-carboxamido)cyclohexyl)amino)-2-oxoethyl)amino)-1-((S)-2-cyclohexyl-2-((S)-2-(methylamino)propanamido)acetyl)-N-((R)-1,2,3,4-tetrahydronaphthalen-1-yl)pyrrolidine-2-carboxamide]
GI50 [1]: 670 nM | IC50 [2]: > 2000 nM | DC50 [3]: 2800 nM | IC50 [4]: 2.3 nM | IC50 [5]: 1.9 nM | IC50 [6]: 630 nM | GI50 [7]: 1300 nM | GI50 [8]: > 2000 nM
